{"source": "patent US20250283046A1", "about": "“New Cell Populations and Means and Methods for their Differentiation and Preservation” (EVOTEC INTERNATIONAL GMBH, priority 2022, published 2025)", "type_in_all_cases": "cell-based, human", "key": {"[1]": {"test_system": "post-thaw islet-like clusters", "test": "Flow cytometry of post-thaw islet-like clusters", "details": "combination protocol", "procedure": "(§1) Using the combination protocol, induced pluripotent stem cells were differentiated into EN clusters. […] Clusters were cryoprotected before freezing by addition of the basal cryoprotective medium, consisting of KnockOut™ Serum Replacement, 10 μM ROCKi and 2 μM fatty acids, with increasing concentrations of DMSO and EG, in combination with incubation steps at decreasing temperatures. The DMSO and EG concentrations during the cryoprotection protocol and the corresponding stock concentrations, along with incubation times and temperatures, are given in table 1.\nEN clusters, transferred to cryogenic vials, were frozen directly after the stepwise cryoprotection treatment in a controlled rate freezer using the following protocol (freezing procedure A): • 1. The sample is cooled-down to −7.5° C. (+/−0.7° C.); • 2. Induction of nucleation by mechanical agitation and inducing a supercool spot at the outer vial wall; • 3. Incubation for 15-minutes at −7.5° C.; • 4. Cool-down of sample to −40° C. at a rate of 0.3° C. per minute; • 5. Immersion of sample in liquid nitrogen; • 6. Transfer to liquid N2 tank for long-term storage.\nAfter low-temperature storage of at least seven days, the EN clusters were thawed rapidly in a 37° C. waterbath and the cryoprotective medium is diluted with thawing medium, consisting of differentiation medium for the EN-stage as described previously, according to the combination protocol, supplemented with 20% KnockOut™ Serum Replacement and 10 μM ROCKi. After resuspension in fresh thawing medium, the EN clusters are cultured under standard culture conditions. The supplements in the thawing medium are removed by medium change after 24 hours, using differentiation medium for the EN-stage, according to the combination protocol, for further differentiation. Afterwards, the culture medium was refreshed regularly. […]\nRecovery rates were determined after post-thaw culture of 4-6 days, i.e. differentiation into islet-like clusters, by determination of viable cell count. Clusters, dissociated into single cells, were stained and analysed for different markers with flow cytometry."}, "islet-like clusters": {"test_system": "islet-like clusters", "test": "Single cell RNA sequencing and histology of islet-like clusters", "procedure": "Beta cell differentiation from iPSC aggregates was carried out using several hiPSC lines with a new protocol derived by combining two published protocols (Nostro et al., Stem Cell Reports (2015), 4(4): 591-604; Rezania et al., Nat Biotechnol (2014), 32(11): 1121-1133), further referred to as “combination protocol”. iPSCs were seeded as single cells in suspension at 1×10^6 cells/mL in mTeSR1 (StemCell Technologies Inc.; 05850) with […] Y-27632 and kept in culture in 100 mL spinner flasks on a stirring platform to form aggregates under low shear conditions (see e.g. Fok and Zandstra, Stem Cells 2005; 23:1333-1342). At day 0 of differentiation, iPSC clusters were treated with Basal medium 1 (BM1) with the addition of 100 ng/mL Activin A, 2 μM CHIR 99021 and 10 μM Y-27632 to induce definitive endoderm. On subsequent days, media change was performed as described below, and occurred daily up to day 14, every other day after that. Definitive endoderm (DE) was induced from day 0 to day 3 and gut tube (GT) was patterned from day 3 to day 6. On day 6, pancreatic progenitors (PP) were induced until day 11. Commitment to the endocrine (EN) lineage was then performed between day 11 and day 14, and day 14 EN clusters were differentiated to islet-like clusters (ILCs) until day 24 (FIG. 1). […]"}, "ILC cells [2]": {"test_system": "ILC cells", "test": "Flow cytometry of islet-like clusters differentiated from hiPSC with the combination protocol", "procedure": "Beta cell differentiation from iPSC aggregates was carried out using several hiPSC lines with a new protocol derived by combining two published protocols (Nostro et al., Stem Cell Reports (2015), 4(4): 591-604; Rezania et al., Nat Biotechnol (2014), 32(11): 1121-1133), further referred to as “combination protocol”. iPSCs were seeded as single cells in suspension at 1×10^6 cells/mL in mTeSR1 (StemCell Technologies Inc.; 05850) with […] Y-27632 and kept in culture in 100 mL spinner flasks on a stirring platform to form aggregates under low shear conditions (see e.g. Fok and Zandstra, Stem Cells 2005; 23:1333-1342). At day 0 of differentiation, iPSC clusters were treated with Basal medium 1 (BM1) with the addition of 100 ng/mL Activin A, 2 μM CHIR 99021 and 10 μM Y-27632 to induce definitive endoderm. On subsequent days, media change was performed as described below, and occurred daily up to day 14, every other day after that. Definitive endoderm (DE) was induced from day 0 to day 3 and gut tube (GT) was patterned from day 3 to day 6. On day 6, pancreatic progenitors (PP) were induced until day 11. Commitment to the endocrine (EN) lineage was then performed between day 11 and day 14, and day 14 EN clusters were differentiated to islet-like clusters (ILCs) until day 24 (FIG. 1).\nAs a result, the content of chromogranin A^pos cells rose to levels above 95% (FIGS. 2A, 2C).\nThe addition of gamma secretase inhibitor and removal of T3 led to increased populations of pancreatic islet endocrine cells in islet-like clusters. […] In addition, the somatostatin^pos population was increased in islet-like clusters generated with the addition of gamma secretase inhibitor and removal of T3 (FIG. 7; FIG. 11; FIG. 14; FIG. 15A).\nQuantification of the EC cell population in islet-like clusters was performed by FACS for serotonin^pos and C-peptide^neg cells. While islet-like clusters generated using the combination protocol (Control) contain 30% of pancreatic EC cells, the addition of gamma secretase inhibitor in absence of T3 (+GSI/−T3) led to a drastic reduction of this population, down to levels <15% (FIGS. 5A, 5B)."}, "ILC cells [3]": {"test_system": "ILC cells", "test": "Flow cytometry of islet-like clusters obtained with the second protocol", "details": "second protocol with addition of GSI and removal of T3", "source_text": "As the combination protocol, the second protocol starts with seeding and aggregation of single pluripotent cells in suspension, and proceeds through the same intermediate stages of pancreatic embryonic development (definitive endoderm/DE, primitive gut tube, pancreatic progenitors, endocrine differentiation) to beta cell-containing islet-like clusters (ILCs) containing C-peptide^pos/insulin^pos/NKX6.1^pos beta cells. Differences to the combined protocol include the addition of a combination of BMP4 and bFGF during the first day of DE induction (see also Example 4), and longer durations of media incubations during pancreatic progenitor and endocrine induction, resulting in an overall longer time from start of differentiation to EN stage (EN stage on day 16 instead of day 14). Similar to the combined protocol, the second protocol was modified by additional gamma secretase inhibitor treatment in absence of T3 during the EN to ILC transition. The latter version of the adapted protocol is referred to “second protocol +GSI/−T3”."}, "[4]": {"test_system": "post-thaw islet-like clusters", "test": "Single-cell RNA sequencing of post-thaw islet-like clusters", "details": "second protocol, frozen at EN+1", "procedure": "While applying the second differentiation protocol, clusters were frozen at EN+1 using the described cryoprotective medium of 7.2% DMSO+2.8% EG added within the stepwise cryoprotection treatment and freezing procedure A. After thawing the EN clusters as described, the clusters were differentiated into islet-like clusters according to the second protocol (Control) in comparison to the second protocol with extension of GSI and without T3 addition. Single-cell RNA sequencing was carried out after thawing and differentiation into islet-like clusters, after dissociation of clusters into single cells."}, "[5]": {"test_system": "post-thaw islet-like clusters", "test": "Post-thaw recovery rate of islet-like clusters (viable cell count)", "details": "combination protocol, frozen at EN stage with Medium A, freezing procedure A; GSI without T3 after thawing", "procedure": "as §1\nEN clusters, transferred to cryogenic vials, were frozen directly after the stepwise cryoprotection treatment in a controlled rate freezer using the following protocol (freezing procedure A): • 1. The sample is cooled-down to −7.5° C. (+/−0.7° C.); • 2. […]\nRecovery rates were determined after post-thaw culture of 4-6 days, i.e. differentiation into islet-like clusters, by determination of viable cell count. Clusters, dissociated into single cells, were stained and analysed for different markers with flow cytometry. […]\nSubsequent to the cryoprotection, the clusters were frozen using freezing procedure A, as described. […] Recovery rates of post-thaw islet-like clusters were determined by determination of viable cell count. Viability was determined with a viability staining with PI and FDA, imaged with a fluorescence microscope. […]"}, "[6]": {"details": "GSI in absence of T3 after thawing"}, "[7]": {"details": "addition of gamma secretase inhibitor and removal of T3, compared to control"}}, "data": [{"smiles": "C[C@H](NC(=O)Cc1cc(F)cc(F)c1)C(=O)N[C@H]1N=C(c2ccccc2)c2ccccc2N(C)C1=O", "note": "[gamma secretase inhibitor, gamma secretase inhibitor XXI (CAS 209986-17-4)]", "values": [{"measurement": "number of Chromogranin^pos cells in post-thaw islet-like clusters versus control", "setting": "[1]; [6]", "result": "increases"}, {"measurement": "number of beta-cells in post-thaw islet-like clusters versus control", "setting": "[1]; [6]", "result": "increases"}, {"measurement": "C-peptide^neg/serotonin^pos cell levels in post-thaw islet-like clusters versus control", "setting": "[1]; GSI while omitting T3 after thawing", "result": "decreases"}, {"measurement": "ductal cells (SOX9^pos/CFTR^pos)", "setting": "islet-like clusters; addition of gamma secretase inhibitor and removal of T3", "result": "Only residual ductal cells"}, {"measurement": "somatostatin^pos population", "setting": "islet-like clusters; [7]", "result": "increased"}, {"measurement": "content of chromogranin A^pos cells", "setting": "ILC cells [2]; addition of gamma secretase inhibitor (1 μM, day 14-17) and removal of T3 after EN stage, combination protocol", "result": "above 95%"}, {"measurement": "glucagon^pos cells", "setting": "ILC cells [2]; [7]", "result": "Significantly higher numbers"}, {"measurement": "NKX6.1^pos/C-peptide^pos beta cell population", "setting": "ILC cells [2]; addition of gamma secretase inhibitor and removal of T3, FACS", "result": "> 65", "unit": "%"}, {"measurement": "VMAT1/SLC18A1 expression", "setting": "ILC cells [2]; addition of gamma secretase inhibitor in absence of T3", "result": "similarly reduced"}, {"measurement": "pancreatic EC cells (serotonin^pos and C-peptide^neg)", "setting": "ILC cells [2]; addition of gamma secretase inhibitor in absence of T3, combination protocol, control 30%", "result": "< 15", "unit": "%"}, {"measurement": "NKX6.1^pos/C-peptide^pos cells", "setting": "ILC cells [3]", "result": "above 65%"}, {"measurement": "serotonin^pos/C-peptide^neg cells", "setting": "ILC cells [3]", "result": "only a small fraction"}, {"measurement": "population of ductal cells, post-thaw", "setting": "[4]; GSI without T3", "result": "decreased to low levels"}, {"measurement": "populations of ARX^pos cells, post-thaw, versus Ctrl", "setting": "[4]; extended GSI in absence of T3", "result": "increased"}, {"measurement": "populations of beta-cells, post-thaw, versus Ctrl", "setting": "[4]; extended GSI in absence of T3", "result": "increased"}, {"measurement": "somatostatin (SST)^pos cells, post-thaw, versus Ctrl", "setting": "[4]; extended GSI in absence of T3", "result": "increased"}, {"measurement": "post-thaw recovery versus control", "setting": "[5]", "result": "increases the post-thaw recovery"}]}]}
